Data set [1] deals with MOZ. The note with it: @ 10 µM; ref 5 (Supplementary References); cited from earlier work.
Data set [2] relates to Rtt109. Particulars: cited from earlier work.
The subject of data set [3] is panel of proteases, kinases, and phosphatases. The experiment in a line: Pilot selectivity panel (Reaction Biology). The class given is biochemical. The note with it: 10 µM compound. The procedure:
(§1) Selectivity profiles vs. HATs, HDACs, SIRTs, HMTs, proteases, kinases, and phosphatases were performed by Reaction Biology Corporation (Malvern, PA; Fig. 3 and Supplementary Fig. 3). Percent activity was normalized to DMSO-only controls. Reference control compounds were included in each assay.
(§2) Relevant reaction procedures for each target class are briefly summarized (see reactionbiology.com for additional details). HATs: reaction buffer 50 mM Tris–HCl, pH 8.0, 50 mM NaCl, 0.1 mM EDTA, ± 1 mM DTT, 1 mM PMSF, 1% DMSO; substrate [^3H]-acetyl-CoA; reaction time 1 h; end-point measurement. […] HMTs: reaction buffer 50 mM Tris–HCl, pH 8.0, 0.01% Brij35, 1 mM EDTA, 1 mM DTT, 1 mM PMSF, 1% DMSO (EZH2); reaction buffer 50 mM Tris–HCl, pH 7.5, 5 mM EDTA, 0.01% Brij35, 5 mM DTT, 0.1 mM PMSF, 5% glycerol, 1% DMSO; 50 mM Tris–HCl, pH 8.5, 5 mM MgCl2, 50 mM NaCl, 0.01 Brij35, 1 mM DTT, 1% DMSO (G9a); methyl donor 1 μM S-Adenosyl-L-[methyl-^3H]-methionine; substrate 5 μM histone proteins or 0.05 mg mL^−1 nucleosomes; pre-incubation time 10–15 min; reaction time 0.5–1 h; end-point measurement. Caspases: reaction buffer 50 mM HEPES, pH 7.4, 1 M citrate, 100 mM NaCl, 0.01% CHAPS, 0.1 mM EDTA, 10 mM DTT; fluorogenic peptide substrate; pre-incubation time 10 min; reaction time 2 h; time-course measurement. Kinases: reaction buffer 20 mM HEPES, pH 7.5, 10 mM MgCl2, 1 mM EGTA, 0.02% Brij35, 0.02 mg mL^−1 BSA, 0.1 mM Na3VO4, 2 mM DTT, 1% DMSO; substrate [^33P]-ATP; reaction time 2 h; end-point measurement.

Data set [4] has as its system SAS. Further details: method as in ref 5 (Supplementary References). Particulars: @ 10 µM; ref 5 (Supplementary References); cited from earlier work.
The target in data set [5] is 200 kinases. The data set is described as follows: Expanded kinase profile (Cerep/Eurofins). The note with it: 10 μM compound. The class given is biochemical. On the procedure: Assays were performed using either homogeneous time-resolved fluorescence or LANCE® time-resolved-FRET formats (see cerep.fr for additional details). […] Reference control compounds were included in each assay.

For data set [6], the target named is T1, PCAF (Homo sapiens, UniProt Q92831).
T1 construct: Reaction Biology Corporation (assays run by this contract lab)
T1 sequence (Q92831 whole entry, species assumed): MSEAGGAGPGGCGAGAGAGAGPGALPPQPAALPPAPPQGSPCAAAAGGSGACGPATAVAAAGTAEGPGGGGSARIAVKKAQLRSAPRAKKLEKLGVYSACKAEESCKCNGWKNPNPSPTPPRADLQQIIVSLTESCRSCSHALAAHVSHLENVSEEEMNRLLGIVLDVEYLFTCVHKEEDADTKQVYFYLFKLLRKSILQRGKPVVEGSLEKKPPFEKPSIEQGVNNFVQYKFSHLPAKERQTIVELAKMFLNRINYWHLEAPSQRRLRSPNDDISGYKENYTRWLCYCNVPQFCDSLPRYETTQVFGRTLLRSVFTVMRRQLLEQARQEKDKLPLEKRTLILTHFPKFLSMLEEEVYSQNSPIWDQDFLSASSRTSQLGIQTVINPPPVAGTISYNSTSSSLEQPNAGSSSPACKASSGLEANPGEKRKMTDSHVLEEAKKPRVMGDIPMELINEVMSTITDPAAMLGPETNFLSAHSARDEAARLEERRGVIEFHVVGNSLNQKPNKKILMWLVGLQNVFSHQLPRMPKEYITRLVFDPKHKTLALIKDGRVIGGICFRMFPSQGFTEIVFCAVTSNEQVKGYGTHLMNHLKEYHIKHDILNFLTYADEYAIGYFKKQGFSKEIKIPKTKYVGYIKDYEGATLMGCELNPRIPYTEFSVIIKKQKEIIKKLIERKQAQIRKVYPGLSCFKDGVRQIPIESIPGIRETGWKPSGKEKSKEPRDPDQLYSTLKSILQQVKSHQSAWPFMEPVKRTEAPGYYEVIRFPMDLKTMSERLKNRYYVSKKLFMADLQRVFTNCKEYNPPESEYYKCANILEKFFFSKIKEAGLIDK
The data set is described as follows: PCAF activity in presence and absence of DTT. The class given is biochemical. The note with it: 10 and 100 μM compound. On the procedure:
as §1
as §2, with “Kinases: reaction buffer 20 mM HEPES, pH 7.5, 10 mM MgCl2, 1 mM EGTA, 0.02% Brij35, 0.02 mg mL^−1 BSA, 0.1 mM Na3VO4, 2 mM DTT, 1% DMSO; substrate [^33P]-ATP; reaction time 2 h; end-point measurement.” left out

Data set [7] has as its system MYST2. The note with it: cited from earlier work.
For data set [8], the system named is caspase 3/7 activity in HEK293T and MCF7 cells. The data set is described as follows: Live-cell caspase 3/7 activity. Particulars: 24 h after compound addition. The class given is cell-based. On the procedure:
(§3) For cell growth analyses, cells were seeded in 96-well plates, treated with compounds for the indicated times, and monitored over time in a live cell Incucyte™ ZOOM imager (Essen Biosciences). To label apoptotic and dead cells, caspase 3/7 activatable DEVD recognition motif NucView™ 488 DNA intercalating dye (1:1000 dilution, Essen Biosciences) and SYTOX™ green nucleic acid stain (1:1000 dilution, Invitrogen) were used respectively, following manufacturer instructions.

Data set [9] concerns HEK293T and MCF7 cells. The data set is described as follows: Membrane permeability (SYTOX green uptake). The class given is cell-based. Particulars: for membrane permeability: Sytox green dead-cell dye uptake. The procedure:
as §3

Data set [10] concerns MOF. Further details: method as in ref 19, 26 (Supplementary References). The note with it: original report; 26 (Supplementary References); cited from earlier work.
The target in data set [11] is T2, p300 (Homo sapiens, UniProt Q09472).
T2 construct: Reaction Biology Corporation (assays run by this contract lab)
T2 sequence (Q09472 whole entry, species assumed): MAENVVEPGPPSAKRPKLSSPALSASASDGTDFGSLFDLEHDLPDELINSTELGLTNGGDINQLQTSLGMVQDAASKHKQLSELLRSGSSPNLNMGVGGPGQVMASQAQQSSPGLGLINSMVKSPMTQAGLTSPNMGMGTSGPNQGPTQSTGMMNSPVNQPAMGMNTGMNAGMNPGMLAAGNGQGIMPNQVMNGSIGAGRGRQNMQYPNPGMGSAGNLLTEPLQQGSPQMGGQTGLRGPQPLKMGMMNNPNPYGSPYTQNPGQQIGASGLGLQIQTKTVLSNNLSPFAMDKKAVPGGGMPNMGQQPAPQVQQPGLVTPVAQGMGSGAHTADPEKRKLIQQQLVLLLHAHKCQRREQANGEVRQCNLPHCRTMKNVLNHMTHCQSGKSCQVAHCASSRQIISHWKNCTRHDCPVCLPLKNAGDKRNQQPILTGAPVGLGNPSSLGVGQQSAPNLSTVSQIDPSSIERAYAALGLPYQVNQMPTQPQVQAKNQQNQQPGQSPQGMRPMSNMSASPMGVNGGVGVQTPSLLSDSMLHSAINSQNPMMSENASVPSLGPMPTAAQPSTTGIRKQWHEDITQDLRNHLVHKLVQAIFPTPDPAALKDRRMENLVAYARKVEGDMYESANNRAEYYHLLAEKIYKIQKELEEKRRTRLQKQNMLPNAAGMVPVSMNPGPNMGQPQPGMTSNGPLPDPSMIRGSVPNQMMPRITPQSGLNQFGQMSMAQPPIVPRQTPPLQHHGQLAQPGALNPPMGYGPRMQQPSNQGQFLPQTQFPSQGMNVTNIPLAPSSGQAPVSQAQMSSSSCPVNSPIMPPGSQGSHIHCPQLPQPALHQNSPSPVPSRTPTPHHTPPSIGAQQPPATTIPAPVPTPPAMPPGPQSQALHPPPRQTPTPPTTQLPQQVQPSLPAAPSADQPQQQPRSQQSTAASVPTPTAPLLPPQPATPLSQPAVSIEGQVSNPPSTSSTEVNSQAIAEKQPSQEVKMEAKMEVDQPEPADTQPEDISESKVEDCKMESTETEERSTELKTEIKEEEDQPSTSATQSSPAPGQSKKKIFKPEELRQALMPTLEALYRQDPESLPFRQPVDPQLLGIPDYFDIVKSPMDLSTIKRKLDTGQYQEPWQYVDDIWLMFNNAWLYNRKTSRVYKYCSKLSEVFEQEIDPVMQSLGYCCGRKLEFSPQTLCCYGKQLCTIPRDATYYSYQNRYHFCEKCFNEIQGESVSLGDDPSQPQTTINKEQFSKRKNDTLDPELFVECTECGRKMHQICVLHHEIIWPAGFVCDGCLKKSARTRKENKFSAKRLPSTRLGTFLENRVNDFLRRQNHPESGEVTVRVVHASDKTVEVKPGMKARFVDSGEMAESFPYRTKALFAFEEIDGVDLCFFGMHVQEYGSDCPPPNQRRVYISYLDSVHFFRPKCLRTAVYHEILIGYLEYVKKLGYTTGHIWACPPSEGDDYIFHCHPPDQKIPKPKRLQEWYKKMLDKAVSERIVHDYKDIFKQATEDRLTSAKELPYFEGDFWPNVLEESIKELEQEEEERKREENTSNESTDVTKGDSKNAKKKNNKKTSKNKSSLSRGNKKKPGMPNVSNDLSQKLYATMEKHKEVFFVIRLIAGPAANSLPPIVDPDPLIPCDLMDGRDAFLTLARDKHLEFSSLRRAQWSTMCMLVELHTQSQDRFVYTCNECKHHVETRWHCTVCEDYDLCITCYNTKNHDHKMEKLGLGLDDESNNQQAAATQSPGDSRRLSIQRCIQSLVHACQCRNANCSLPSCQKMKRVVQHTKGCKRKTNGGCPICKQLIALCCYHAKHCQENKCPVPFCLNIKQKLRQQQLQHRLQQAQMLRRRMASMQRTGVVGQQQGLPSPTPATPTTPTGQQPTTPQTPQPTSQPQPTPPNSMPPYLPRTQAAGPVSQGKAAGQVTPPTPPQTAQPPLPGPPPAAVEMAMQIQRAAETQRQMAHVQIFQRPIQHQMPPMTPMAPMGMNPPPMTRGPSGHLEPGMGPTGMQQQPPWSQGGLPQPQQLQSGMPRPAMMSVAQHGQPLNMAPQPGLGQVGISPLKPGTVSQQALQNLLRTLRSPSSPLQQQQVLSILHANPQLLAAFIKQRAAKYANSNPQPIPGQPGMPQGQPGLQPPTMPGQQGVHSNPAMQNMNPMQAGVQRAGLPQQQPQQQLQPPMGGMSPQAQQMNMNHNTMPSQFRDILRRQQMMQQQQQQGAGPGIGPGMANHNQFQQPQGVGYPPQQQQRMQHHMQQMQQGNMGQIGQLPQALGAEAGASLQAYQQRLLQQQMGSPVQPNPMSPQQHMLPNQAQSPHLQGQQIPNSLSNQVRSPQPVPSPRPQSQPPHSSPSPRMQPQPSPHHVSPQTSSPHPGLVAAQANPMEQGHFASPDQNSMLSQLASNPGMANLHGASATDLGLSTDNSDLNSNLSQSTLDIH
The note with it: read-out: IC50 (µM), p300; original report; 22 (Supplementary References); cited from earlier work.

In data set [12] the test system is KAT5. Details: method as in ref 22 (Supplementary References). Particulars: original report; ref 22 (Supplementary References); cited from earlier work.
In data set [13] the test system is MYST4. Particulars: original report; ref 22 (Supplementary References); cited from earlier work.
Data set [14] has as its system HEK293T and MCF7 cells. The data set is described as follows: Cell proliferation by cell confluence. The class given is cell-based. Particulars: 30 µM compound; MCF7 and HEK293T cells. On the procedure: Cells were cultured in DMEM supplemented with 10% fetal bovine serum (Winsent), penicillin (100 U mL^−1), and streptomycin (100 µg mL^−1). Compounds dissolved in DMSO or matching DMSO-only controls were added to cells for indicated times. Compound effects in cells were determined as described[67] and are outlined below.
as §3

“Also recorded” adds a separate entry of the source.

In the case of `CC1=NN(c2ccc(C(=O)O)cc2)C(=O)/C1=C/c1ccc(-c2cc(C)c(C)cc2[N+](=O)[O-])o1` [Compound 1, C646], the “% inhibition, MOZ” value in data set [1] is recorded as under 10%. The “% inhibition, Rtt109” value in data set [2] (@ 10 µM, ref 5 (Supplementary References)) was under 10%. In data set [3], the “inhibition against the tested kinases and phosphatases” value was “low levels of inhibition”. In data set [3] (17 proteases), the “proteases with > 50% inhibition” value was 7 out of 17. Also, the “% inhibition, SAS” value in data set [4] was under 10%. In data set [5], the “kinases with >50% inhibition” value is recorded as 26 out of 200.

As for `O=c1c2cccnc2sn1Cc1ccc(C(F)(F)F)cc1` [Compound 3, PU141], the “activity vs. most of the targets tested” value in [3] (proteases, kinases, phosphatases) is “little activity”. Also, in data set [6], the “inhibition of PCAF in the absence of DTT compared with DTT present” value was “notable exceptions”.

Regarding `COc1ccc(S(=O)(=O)ON=C2C=C(C)C(=O)C(C)=C2)cc1` [Compound 5, L002], in [6], the “inhibition of PCAF in the absence of DTT compared with DTT present” value is “notable exceptions”. Besides, the “% inhibition, MYST2” value in [7] (@ 100 µM, HotSpot, ref 9 (Supplementary References)) was 1%.

As for `O=C1/C(=C/c2ccc(O)c(Br)c2)CCC/C1=C\c1ccc(O)c(Br)c1` [Compound 12, HAT inhibitor II], the “caspase 3/7 activity” value in [8] is on record as “induce; also recorded: dose-dependent increases”. Moreover, in data set [9], the membrane permeability result is listed as “increase; also recorded: dose-dependent increases”.

A word on the IC50: it is the concentration that gives 50% inhibition. For `CCCCCCCc1ccc(CCc2cccc(O)c2C(=O)O)cc1` [Compound 15, MG 149], in [10], the IC50 was 47 µM.

As to `Cc1cc2c(C(C)C)c(O)c(O)c(C=O)c2c(O)c1-c1c(C)cc2c(C(C)C)c(O)c(O)c(C=O)c2c1O` [Compound 16, Gossypol], the IC50 in data set [11] was about 25 µM.

For the molecule `COc1ccc(/C(Cl)=C(/C=O)c2ccc(OC)cc2)cc1` [Compound 18, Windorphen], the 50% inhibitory concentration (IC50) in data set [12] was over 100 µM; in data set [13] it was over 100 µM; in data set [7] (original report, ref 22 (Supplementary References)) it was over 100 µM.

For `CCCC1(c2ccccc2)NC(=O)N(CC(=O)N(C)Cc2c(F)cccc2Cl)C1=O` (stereo not drawn) [Compound 21, N-[(2-chloro-6-fluorophenyl)methyl]-2-(2,5-dioxo-4-phenyl-4-propylimidazolidin-1-yl)-N-methylacetamide], the 50% inhibitory concentration (IC50) in data set [2] (original report, ref 25 (Supplementary References)) is 0.056 µM.

In the case of Plumbagin [Compound 8], the “cytotoxicity by membrane integrity studies” value in data set [9] (30 µM compound, MCF7 cells) is given as “cytotoxic”. Besides, in data set [9], the membrane permeability entry is reported as “increase; also recorded: dose-dependent increases”. The “cell death by cell confluence studies” value in [14] is recorded as “causes cell death”.

Source of the values: PMC5688144, “Assay interference and off-target liabilities of reported histone acetyltransferase inhibitors” (Nature Communications, 2017).
